Results as given in PMC4965013, “Open Source Drug Discovery with the Malaria Box Compound Collection for Neglected Diseases and Beyond” (PLoS Pathogens, 2016).
Blank lines part the entries; values can stand above or below the compound they belong to.

Legend:
Dictyostelium discoideum = conditions: 7.5 µM; ref [150]; cited from earlier work
[1] = test system: Mycobacterium marinum in Acanthamoeba castellanii; design: method as in ref [150] (a number printed in a supplementary file, which may have a reference list of its own: not looked up in the article's list); conditions: 30 µM; ref [150]; cited from earlier work
Mycobacterium marinum = assay: M. marinum antibiotic assay; format: cell-based; conditions: 10µM
Description: Columns FA-FC: Soldati Group (data presented first in this paper). M. marinum, D. discoideum, and Acathamoeba castellani assays. Each compound of the Malaria Box has been assayed at 10 µM in all three assays. First, the antibiotic activity was assayed directly against Mycobacterium marinum in its culture medium. Second, the toxicity and growth inhibitory effect of the compounds was assayed against the amoeba Dictyostelium discoideum in its culture medium. Finally, the “in cellulo” anti-infective activity of each compound was tested using the intracellular infection system Acanthamoeba castellanii-M. marinum. Values have been normalized using the DMSO carrier. For each assay, values have been normalized to 1.00 using the DMSO carrier, which has no detectable effect on D. discoideum nor M. marinum growth, while rifabutin was used as positive control for the antibiotic assay and the infection assay, as it abolishes M. marinum growth (normalized value under 0.10) in broth at 10 µM and intracellularly at 30 µM [150].

Cryptosporidium parvum = Cryptosporidium parvum high content microscopy in HCT-8
5-HT4 receptor = biological target: T1, 5-HT4 receptor (Homo sapiens, UniProt Q13639); assay: 5-HT4 radioligand binding; conditions: reference compound
T1 construct: expressed in transfected cells; host or cells: HeLa

CYP 2C19 = conditions: cited from earlier work
[2] = design: method as in ref WuXi; conditions: WuXi's Acceptance Range For Positive Controls; ref WuXi; cited from earlier work
[3] = cited from earlier work
M3 receptor = biological target: T2, M3 receptor (Homo sapiens, UniProt P20309); assay: M3 radioligand binding; conditions: reference compound
T2 construct: purchased Perkin Elmer
T2 sequence (P20309 whole entry): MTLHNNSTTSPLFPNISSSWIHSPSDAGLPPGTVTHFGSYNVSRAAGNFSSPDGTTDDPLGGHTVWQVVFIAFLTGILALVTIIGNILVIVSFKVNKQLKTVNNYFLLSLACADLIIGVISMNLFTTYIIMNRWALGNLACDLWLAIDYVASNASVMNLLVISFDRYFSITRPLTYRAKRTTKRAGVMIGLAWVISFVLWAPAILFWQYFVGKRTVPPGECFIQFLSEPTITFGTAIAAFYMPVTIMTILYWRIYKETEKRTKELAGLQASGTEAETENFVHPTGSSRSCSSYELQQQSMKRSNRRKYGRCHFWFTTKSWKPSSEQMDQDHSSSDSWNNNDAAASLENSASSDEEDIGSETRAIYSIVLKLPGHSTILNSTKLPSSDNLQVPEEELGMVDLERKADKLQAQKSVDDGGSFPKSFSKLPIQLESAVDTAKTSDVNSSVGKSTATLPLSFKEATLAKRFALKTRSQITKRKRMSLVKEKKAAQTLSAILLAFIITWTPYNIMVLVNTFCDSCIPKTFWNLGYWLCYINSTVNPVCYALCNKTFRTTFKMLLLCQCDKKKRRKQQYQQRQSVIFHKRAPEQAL

T1 sequence (Q13639 whole entry): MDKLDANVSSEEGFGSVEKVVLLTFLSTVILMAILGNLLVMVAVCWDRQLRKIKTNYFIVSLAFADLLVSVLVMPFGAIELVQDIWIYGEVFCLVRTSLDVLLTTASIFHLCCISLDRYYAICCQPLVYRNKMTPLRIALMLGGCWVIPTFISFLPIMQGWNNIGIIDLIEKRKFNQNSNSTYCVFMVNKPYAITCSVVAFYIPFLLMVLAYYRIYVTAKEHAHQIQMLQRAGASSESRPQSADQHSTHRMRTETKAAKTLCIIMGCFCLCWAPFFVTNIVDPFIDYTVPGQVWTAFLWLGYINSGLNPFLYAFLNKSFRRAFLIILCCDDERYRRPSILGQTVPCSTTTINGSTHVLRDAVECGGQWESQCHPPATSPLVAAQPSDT

Structure (SMILES): CN1CCC[C@H]1c1cccnc1 [Nicotine]
D. discoideum growth, positive control (Dictyostelium discoideum): abolishes its growth

Structure (SMILES): CO[C@H]1/C=C/O[C@@]2(C)Oc3c(C)c(O)c4c(c3C2=O)C2=NC3(CCN(CC(C)C)CC3)NC2=C(NC(=O)/C(C)=C\C=C\[C@H](C)[C@H](O)[C@@H](C)[C@@H](O)[C@@H](C)[C@H](OC(C)=O)[C@@H]1C)C4=O [rifabutin, reference compound]
M. marinum intracellular growth, normalized value [1]: under 0.10
Mycobacterium marinum relative growth DMSO=1 Antibiotic Assay (Mycobacterium marinum): under 0.10

Structure (SMILES): O=C(Nc1ccc(Cl)cc1)N1CCN(c2ccc3nncn3n2)CC1 [MMV665917]
Selectivity Index C. parvum over mammalian cells (Cryptosporidium parvum): > 20

Ki (5-HT4 receptor): 0.00045 µM
Structure (SMILES): Cn1cc(C(=O)OCC2CCN(CCNS(C)(=O)=O)CC2)c2ccccc21 [GR113808]

Structure (SMILES): CCC1(c2ccccc2)NC(=O)N(Cc2ccccc2)C1=O (single isomer, unassigned; (+)) [(+)-N-3-benzylnirvanol]
CYP 2C19 IC50 Acceptance Range (CYP 2C19): 0.100~0.350 μM

Structure (SMILES): NC(=O)N1c2ccccc2C=Cc2ccccc21 [Carbamazepine]
Kinetic Solubility pH=7.4 [2]: 43 ± 4 µg/mL

Structure (SMILES): CC(=O)CC(c1ccccc1)c1c(O)c2ccccc2oc1=O (stereo not drawn) [Warfarin]
Plasma Protein Binding Bound% Human [3]: >98%

Ki (M3 receptor): 0.0344 µM
Structure (SMILES): O[Si](CCCN1CCCCC1)(c1ccc(F)cc1)C1CCCCC1 (stereo not drawn) [p-F-HHSiD]
